The values below come from US20250027863A1, “METHOD OF CHARACTERIZATION OF RELEASE OF POORLY SOLUBLE MATERIALS AND UPTAKE IN COMPLEX LIQUIDS” (Zennova LLC, priority 2021, published 2025).

The data set is described as follows: MCRR in vitro release test of ibuprofen solution (flow medium) to external medium. Format: physicochemical.

For the molecule `CC(C)Cc1ccc(C(C)C(=O)O)cc1` (centres unmarked) [ibuprofen], the “slope of ln (1-fraction released) vs. the exposure time” value (exposure time in seconds, 15-300 seconds) was −0.0102. Besides, the percent released (ibuprofen solution in 25 mM phosphate buffer as flow medium, exposure times up to 300 seconds (test time 291.3 minutes), 20° C, triplicate) is roughly 100%.
